Reference: ChEMBL document CHEMBL4616696, “Construction and Evaluation of Molecular Models: Guide and Design of Novel SE Inhibitors” (ACS Med Chem Lett, 2020)
Converted amounts (≈) assume the structure as drawn. The source made the active and inactive calls. The calls are words filed in the database; no cut-off is given here.

Columns and labels:
[1] = test system: Candida tropicalis; assay: Antifungal activity against Candida tropicalis ATCC 1369 assessed as reduction in fungal growth by NCCLS method; assay type: functional
[2] = test system: Candida albicans; assay: Antifungal activity against fluconazole-resistant Candida albicans 901 assessed as reduction in fungal growth by NCCLS method; assay type: functional
[3] = test system: Candida albicans; assay: Antifungal activity against fluconazole-resistant Candida albicans CaR assessed as reduction in fungal growth by NCCLS method; assay type: functional
[4] = test system: Pichia kudriavzevii; assay: Antifungal activity against Candida krusei ATCC 6258 assessed as reduction in fungal growth by NCCLS method; assay type: functional
[5] = test system: Candida albicans; assay: Antifungal activity against Candida albicans ATCC 10231 assessed as reduction in fungal growth by NCCLS method; assay type: functional
[6] = test system: Candida albicans; assay: Antifungal activity against fluconazole-resistant Candida albicans 632 assessed as reduction in fungal growth by NCCLS method; assay type: functional
[7] = test system: Nakaseomyces glabratus; assay: Antifungal activity against Candida glabrata ATCC 0001 assessed as reduction in fungal growth by NCCLS method; assay type: functional
[8] = test system: Candida albicans; assay: Antifungal activity against fluconazole-resistant Candida albicans 17# assessed as reduction in fungal growth by NCCLS method; assay type: functional
[9] = test system: Candida albicans; assay: Antifungal activity against fluconazole-resistant Candida albicans 904 assessed as reduction in fungal growth by NCCLS method; assay type: functional
[10] = test system: Aspergillus fumigatus; assay: Antifungal activity against Aspergillus fumigatus KM8001 assessed as reduction in fungal growth by NCCLS method; assay type: functional
[11] = Stability in human plasma assessed as compound remaining incubated for 60 mins; assay type: ADME, cell-free; details: read-out: Stability
[12] = Stability in human plasma assessed as compound remaining incubated for 120 mins; assay type: ADME, cell-free; details: read-out: Stability
[13] = molecular target: T1, Squalene epoxidase ERG1 (Candida albicans) (UniProt Q92206); assay: Inhibition of SE in Candida albicans ATCC SC5314 assessed as inhibition of ergosterol biosynthesis by measuring unknown sterol content at 0.125 ug/ml incubated for 16 hrs by LC-MS analysis; parameters: scale not given: the % may be the effect or the level left
T1 sequence (whole entry): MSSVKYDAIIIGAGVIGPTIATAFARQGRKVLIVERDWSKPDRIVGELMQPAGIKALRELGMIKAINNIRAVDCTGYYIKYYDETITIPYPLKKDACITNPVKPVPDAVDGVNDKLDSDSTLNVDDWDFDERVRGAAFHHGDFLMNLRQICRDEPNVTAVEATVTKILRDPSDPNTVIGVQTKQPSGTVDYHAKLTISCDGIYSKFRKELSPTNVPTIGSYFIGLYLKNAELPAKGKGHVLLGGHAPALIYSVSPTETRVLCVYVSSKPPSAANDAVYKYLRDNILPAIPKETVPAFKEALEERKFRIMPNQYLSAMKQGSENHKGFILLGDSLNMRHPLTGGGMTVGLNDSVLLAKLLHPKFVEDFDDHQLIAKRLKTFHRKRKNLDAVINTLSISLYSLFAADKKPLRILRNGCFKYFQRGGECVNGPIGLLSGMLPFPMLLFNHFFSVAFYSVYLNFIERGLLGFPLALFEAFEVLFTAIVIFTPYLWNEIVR

[14] = molecular target: T1, Squalene epoxidase ERG1 (Candida albicans); assay: Inhibition of SE in Candida albicans ATCC SC5314 assessed as inhibition of ergosterol biosynthesis by measuring ergosterol content at 0.125 ug/ml incubated for 16 hrs by LC-MS analysis; parameters: scale not given: the % may be the effect or the level left
[15] = molecular target: T1, Squalene epoxidase ERG1 (Candida albicans); assay: Inhibition of SE in Candida albicans ATCC SC5314 assessed as inhibition of ergosterol biosynthesis by measuring ergosterol content at 0.5 ug/ml incubated for 16 hrs by LC-MS analysis; parameters: scale not given: the % may be the effect or the level left
[16] = molecular target: T1, Squalene epoxidase ERG1 (Candida albicans); assay: Inhibition of SE in Candida albicans ATCC SC5314 assessed as inhibition of ergosterol biosynthesis by measuring eburicol content at 4 ug/ml incubated for 16 hrs by LC-MS analysis; parameters: scale not given: the % may be the effect or the level left
[17] = molecular target: T1, Squalene epoxidase ERG1 (Candida albicans); assay: Inhibition of SE in Candida albicans ATCC SC5314 assessed as inhibition of ergosterol biosynthesis by measuring unknown sterol content at 0.5 ug/ml incubated for 16 hrs by LC-MS analysis; parameters: scale not given: the % may be the effect or the level left
[18] = molecular target: T1, Squalene epoxidase ERG1 (Candida albicans); assay: Inhibition of SE in Candida albicans ATCC SC5314 assessed as inhibition of ergosterol biosynthesis by measuring eburicol content at 0.5 ug/ml incubated for 16 hrs by LC-MS analysis; parameters: scale not given: the % may be the effect or the level left
[19] = molecular target: T1, Squalene epoxidase ERG1 (Candida albicans); assay: Inhibition of SE in Candida albicans ATCC SC5314 assessed as inhibition of ergosterol biosynthesis by measuring increase in squalene content at 4 ug/ml incubated for 16 hrs by LC-MS analysis relative to control; parameters: scale not given: the % may be the effect or the level left
[20] = molecular target: T1, Squalene epoxidase ERG1 (Candida albicans); assay: Inhibition of SE in Candida albicans ATCC SC5314 assessed as inhibition of ergosterol biosynthesis by measuring unknown sterol content at 4 ug/ml incubated for 16 hrs by LC-MS analysis; parameters: scale not given: the % may be the effect or the level left
[21] = molecular target: T1, Squalene epoxidase ERG1 (Candida albicans); assay: Inhibition of SE in Candida albicans ATCC SC5314 assessed as inhibition of ergosterol biosynthesis by measuring increase in squalene content at 0.5 ug/ml incubated for 16 hrs by LC-MS analysis relative to control; parameters: scale not given: the % may be the effect or the level left
[22] = molecular target: T1, Squalene epoxidase ERG1 (Candida albicans); assay: Inhibition of SE in Candida albicans ATCC SC5314 assessed as inhibition of ergosterol biosynthesis by measuring increase in squalene content at 0.125 ug/ml incubated for 16 hrs by LC-MS analysis relative to control; parameters: scale not given: the % may be the effect or the level left
[23] = molecular target: T1, Squalene epoxidase ERG1 (Candida albicans); assay: Inhibition of SE in Candida albicans ATCC SC5314 assessed as inhibition of ergosterol biosynthesis by measuring ergosterol content at 4 ug/ml incubated for 16 hrs by LC-MS analysis; parameters: scale not given: the % may be the effect or the level left
[24] = test system: Candida albicans; assay: Antifungal activity against Candida albicans ATCC SC5314 assessed as exudation of internal materials from cells at 4 ug/ml measured upto 48 hrs by TEM analysis; assay type: functional, organism-based
[25] = test system: Candida albicans; assay: Antifungal activity against Candida albicans ATCC SC5314 assessed as reduction in cell division at 4 ug/ml measured upto 48 hrs by TEM analysis; assay type: functional, organism-based
[26] = test system: Candida albicans; assay: Antifungal activity against Candida albicans ATCC SC5314 assessed as reduction in fungal growth density at 5 and 50 nmol/ml; assay type: functional, organism-based
[27] = test system: Candida albicans; assay: Antifungal activity against Candida albicans ATCC SC5314 assessed as cell membrane disruption at 4 ug/ml measured upto 48 hrs by TEM analysis; assay type: functional, organism-based
[28] = test system: Candida albicans; assay: Antifungal activity against Candida albicans ATCC SC5314 assessed as cell wall disruption at 4 ug/ml measured upto 48 hrs by TEM analysis; assay type: functional, organism-based

With `CN(CC(=O)Nc1ccccc1)C(=O)c1cccc2ccccc12` the MIC [1] was 0.5 µg/mL (≈ 1.57 µM), the MIC [2] was 4 µg/mL (≈ 12.6 µM) and the MIC [3] was 8 µg/mL (≈ 25.1 µM). For the same compound, the MIC [4] was 0.25 µg/mL (≈ 0.785 µM), the MIC [5] was 0.25 µg/mL (≈ 0.785 µM) and the MIC [6] was > 16 µg/mL. For the same compound, the MIC [7] was 0.5 µg/mL (≈ 1.57 µM), the MIC [8] was > 16 µg/mL and the MIC [9] was > 16 µg/mL. It also gave an MIC [10] of 8 µg/mL (≈ 25.1 µM).

For `CN(CC(=O)NCc1ccccc1)C(=O)c1cccc2c1OCCO2`, the MIC [1] was 0.5 µg/mL (≈ 1.47 µM), the remaining at 1 h [11] was 87.3% and the MIC [2] was > 16 µg/mL. For the same compound, the MIC [3] was 4 µg/mL (≈ 11.8 µM), the MIC [4] was 0.25 µg/mL (≈ 0.734 µM) and the MIC [5] was 0.25 µg/mL (≈ 0.734 µM). The remaining at 2 h [12] was 83.5%, the MIC [6] was > 16 µg/mL and the MIC [7] was 0.25 µg/mL (≈ 0.734 µM). The MIC [8] was > 16 µg/mL, the MIC [9] was 8 µg/mL (≈ 23.5 µM) and the MIC [10] was 8 µg/mL (≈ 23.5 µM).

`CN(CC(=O)Nc1ccccc1)C(=O)c1ccc2ccccc2c1` showed an MIC [1] of 0.5 µg/mL (≈ 1.57 µM), an MIC [4] of 1 µg/mL (≈ 3.14 µM) and an MIC [5] of 0.5 µg/mL (≈ 1.57 µM). The MIC [7] was 2 µg/mL (≈ 6.28 µM) and the MIC [10] was > 16 µg/mL.

`CN(C/C=C/c1ccccc1)Cc1cccc2ccccc12` [NAFTIFINE] showed an MIC [1] of 0.5 µg/mL (≈ 1.74 µM), an Activity [13] of 1.6% and an Activity [14] of 83.6%. The MIC [2] was > 16 µg/mL, the MIC [3] was 4 µg/mL (≈ 13.9 µM) and the MIC [4] was 1 µg/mL (≈ 3.48 µM). It also gave an Activity [15] of 62.9%, an MIC [5] of 0.5 µg/mL (≈ 1.74 µM) and an Activity [16] of 1.7%. The Activity [17] was 4.9%, the Activity [18] was 0.7% and the MIC [6] was 8 µg/mL (≈ 27.8 µM). The Activity [19] was 64.5%, the MIC [7] was 0.5 µg/mL (≈ 1.74 µM) and the Activity [20] was 5.4%. It also gave an Activity [21] of 31.5%, an MIC [8] of 8 µg/mL (≈ 27.8 µM) and an MIC [9] of 8 µg/mL (≈ 27.8 µM). The Activity [22] was 14.8%, the Activity [23] was 28.4% and the MIC [10] was > 16 µg/mL.

In the case of `CN(CC(=O)Nc1ccccc1)C(=O)c1cccc2c1OCCO2`, the MIC [1] is reported as 1 µg/mL (≈ 3.06 µM), the MIC [4] is reported as 0.5 µg/mL (≈ 1.53 µM) and the MIC [5] is reported as 0.5 µg/mL (≈ 1.53 µM). The MIC [7] was 1 µg/mL (≈ 3.06 µM) and the MIC [10] was > 16 µg/mL.

For `CN(CC(=O)NCc1ccccc1)C(=O)c1cccc2ccccc12`, the Activity [24] was “Active”, the MIC [1] was 0.5 µg/mL (≈ 1.5 µM) and the Activity [13] was 2.8%. The remaining at 1 h [11] was 94.5%, the Activity [25] was “Active” and the Activity [14] was 87.4%. It also gave an MIC [2] of 4 µg/mL (≈ 12 µM), an MIC [3] of 4 µg/mL (≈ 12 µM) and an MIC [4] of 0.125 µg/mL (≈ 0.376 µM). The Activity [15] was 63.9%, the MIC [5] was 0.125 µg/mL (≈ 0.376 µM) and the Activity [16] was 2.3%. For the same compound, the Activity [17] was 5%, the Activity [26] was “Active” and the Activity [27] was “Active”. It also gave an Activity [18] of 1.6%, a remaining at 2 h [12] of 91.6% and an MIC [6] of 8 µg/mL (≈ 24.1 µM). It also gave an Activity [19] of 58.9%, an MIC [7] of 0.25 µg/mL (≈ 0.752 µM) and an Activity [20] of 7.1%. The Activity [21] was 29.5%, the MIC [8] was 4 µg/mL (≈ 12 µM) and the MIC [9] was > 16 µg/mL. The Activity [22] was 9.8%, the Activity [28] was “Active” and the Activity [23] was 31.7%. It also gave an MIC [10] of 4 µg/mL (≈ 12 µM).

Work on `CN(CC(=O)NCc1ccccc1)C(=O)c1ccc2c(c1)OCCO2` yielded an MIC [1] of 0.5 µg/mL (≈ 1.47 µM), an MIC [4] of 0.5 µg/mL (≈ 1.47 µM) and an MIC [5] of 0.5 µg/mL (≈ 1.47 µM). For the same compound, the MIC [7] was 2 µg/mL (≈ 5.88 µM) and the MIC [10] was > 16 µg/mL.

For `OC(Cn1cncn1)(Cn1cncn1)c1ccc(F)cc1F` [FLUCONAZOLE], the MIC [2] was > 16 µg/mL, the MIC [3] was > 16 µg/mL and the MIC [6] was > 16 µg/mL. For the same compound, the MIC [8] was > 16 µg/mL and the MIC [9] was > 16 µg/mL.

`CN(CC(=O)NCc1ccccc1)C(=O)c1ccc2ccccc2c1` gave an MIC [1] of 0.25 µg/mL (≈ 0.752 µM), an MIC [4] of 0.5 µg/mL (≈ 1.5 µM) and an MIC [5] of 0.5 µg/mL (≈ 1.5 µM). It also gave an MIC [7] of 0.25 µg/mL (≈ 0.752 µM) and an MIC [10] of 8 µg/mL (≈ 24.1 µM).

`CN(CC(=O)Nc1ccccc1)C(=O)c1ccc2c(c1)OCCO2` showed an MIC [1] of 0.5 µg/mL (≈ 1.53 µM), an MIC [4] of 2 µg/mL (≈ 6.13 µM) and an MIC [5] of 1 µg/mL (≈ 3.06 µM). The MIC [7] was 0.5 µg/mL (≈ 1.53 µM) and the MIC [10] was 8 µg/mL (≈ 24.5 µM).
